From patent publication EP0150638A1, “Pyrethroid composition for the local treatment of skin diseases” (CENTRE DE RECHERCHE D'APPLICATIONS PHARMACEUTIQUES …, priority 1983, dated 1985) come the findings set out here.

The nature of the data set: primary cutaneous irritation test. The format is in vivo, lapin. The conditions noted are these: rabbit; compared with other allethrin isomers, natural pyrethrin, or hydrocarbon-containing compositions. The source says: Le pouvoir irritant des compositions selon l'invention a été étudié chez le lapin, par un test d'irritation cutanée primaire, dont les conditions de réalisation sont définies dans le Journal Officiel de la République Française du 21 avril 1971, complété par celui du 5 juin 1973. Il a été comparé à celui des compositions où des pyréthrines naturelles remplaçaient les pyréthrinoldes de l'invention et à celui de compositions résultant du mélange des pyréthrinoides et d'huile de vaseline ou d'isododécane.

With `C=CCC1=C(C)[C@@H](OC(=O)[C@@H]2[C@@H](C=C(C)C)C2(C)C)CC1=O` [pyréthrinoide de l'exemple 1, d-transchrysanthémate de d-alléthrolone], the “pouvoir irritant (comparison in words)” value was “beaucoup moins irritant”.
